Where two headings read alike, the source gives them in different places. Marks after values point to notes of the source that are not given here.
Experiments:
α-glucosidase = α-glucosidase (Saccharomyces cerevisiae, UniProt P53341); test: α-glucosidase inhibition assay (pNPG); type: biochemical
Experimental: The fractions from B. javanica seeds were evaluated as GP-α inhibitors and were further tested for their α-glucosidase inhibitory activity as described previously. Briefly, 50 μL of samples or standard were mixed with 100 μL of α-glucosidase (0.1 U/mL) in phosphate buffer (0.1 M, pH 6.9) and incubated at 37 °C for 10 min. The reactions were initiated by addition of p-Nitrophenyl α-D-Glucoside (p-NPG, 50 μL) in phosphate buffer (0.1 M, pH 6.9) and incubated again at 37 °C for 30 min. The reactions were terminated using NaCO3 (1 M, 50 μL). […] Phosphate buffer (50 μL) was used as control. Blank readings (without substrate) were subtracted from specific sample wells and the percentage of α-Glucosidase inhibition (αGI) was calculated as following formula: αGI (%) = [(Acontrol – Asample)/Acontrol] × 100 [22].
α-glucosidase inhibition activity of isolated compounds were determined according to the method described in section 2.3 and GP-α inhibition activity was measured according to our previously reported method.

[1] = target: T1, glycogen phosphorylase α (GP-α) (Oryctolagus cuniculus, UniProt P00489); test: GP-α inhibition assay; type: biochemical
T1 sequence (P00489 2-843 limits assumed): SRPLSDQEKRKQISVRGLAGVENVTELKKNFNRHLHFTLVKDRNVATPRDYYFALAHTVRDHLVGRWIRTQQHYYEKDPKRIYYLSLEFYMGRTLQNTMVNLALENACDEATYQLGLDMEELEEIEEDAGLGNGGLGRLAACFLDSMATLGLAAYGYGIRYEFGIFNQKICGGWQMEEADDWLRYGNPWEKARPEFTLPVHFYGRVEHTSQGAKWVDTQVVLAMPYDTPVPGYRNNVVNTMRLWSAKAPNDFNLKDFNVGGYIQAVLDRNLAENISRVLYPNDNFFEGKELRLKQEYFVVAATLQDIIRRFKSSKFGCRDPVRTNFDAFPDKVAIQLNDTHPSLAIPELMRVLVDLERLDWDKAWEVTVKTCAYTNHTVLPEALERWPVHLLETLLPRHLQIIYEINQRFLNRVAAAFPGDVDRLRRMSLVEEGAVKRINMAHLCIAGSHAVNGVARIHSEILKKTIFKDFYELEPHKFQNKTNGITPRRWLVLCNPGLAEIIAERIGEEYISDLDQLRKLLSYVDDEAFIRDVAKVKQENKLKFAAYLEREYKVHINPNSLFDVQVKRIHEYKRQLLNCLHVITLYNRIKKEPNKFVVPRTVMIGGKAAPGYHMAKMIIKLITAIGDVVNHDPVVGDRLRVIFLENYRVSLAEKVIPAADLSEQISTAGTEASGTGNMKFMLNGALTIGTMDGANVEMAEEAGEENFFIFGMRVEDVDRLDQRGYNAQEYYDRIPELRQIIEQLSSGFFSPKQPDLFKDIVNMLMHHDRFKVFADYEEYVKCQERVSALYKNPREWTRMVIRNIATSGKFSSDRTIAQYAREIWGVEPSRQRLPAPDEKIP

[2] = tested on: NA-STZ induced type 2 diabetic (T2D) rats; test: Serum lipid profiles in T2D rats; type: in vivo, Sprague Dawley (SD) rats; details: 10 mg/kg, 4 weeks
Experimental: (§1) At the end of study period, rats were fasted overnight, anesthetized, and the blood sample was collected by cardiac puncture. At the end, the rats were sacrificed by cervical dislocation. The blood sample was centrifuged 2000 x g for 15 minute at 4 °C, serum was collected and stored at −80 °C until analyses. The liver was carefully removed, washed in ice-cold phosphate buffered saline (PBS, pH 7.4) to remove the blood. A piece of liver sample was rinsed in liquid nitrogen, stored at −80 °C for glycogen assay.
(§2) The levels of serum total cholesterol (TC), triglycerides (TG), low density lipoprotein cholesterol (LDL-C), and high density lipoprotein cholesterol (HDL-C), total protein, alkaline phosphatase (ALP), alanine aminotransferase (ALT), aspartate aminotransferase (AST), urea, creatinine were analyzed using automatic biochemical analyzer (Beckman-700, Fullerton, CA, USA)

Body weights in T2D rats = type: in vivo, Sprague Dawley (SD) rats; details: 10 mg/kg/day b.w. oral
Experimental: (§3) After diabetes was confirmed, rats were divided into specific groups which were mentioned in the section of treatment protocol above. Fasting blood glucose (FBG) levels and body weight of rats were measured and it was considered as 0 day. The extracts and standard drug were administered orally on a daily base in single dose for 28 days. At the end of each week, animals were fasted overnight and body weights were recorded using electronic balance. Blood samples were obtained from the tail vein of the rats by Accu-Chek FastClix lancing device and blood glucose levels were analysed using glucose meter (Accu-check, Roche Diagnostics, USA).

[3] = tested on: NA-STZ induced type 2 diabetic (T2D) rats; test: Serum insulin levels and HOMA-IR in T2D rats; type: in vivo, Sprague Dawley (SD) rats; details: 10 mg/kg, 4 weeks, not significant
Experimental: as §1
The serum insulin levels were quantified by using rat insulin ELISA kit (Mercodia AB, Uppsala, Sweden) according to the manufacturer’s instructions. Insulin resistance (IR) was calculated according to the homeostasis model assessment by using the following equation [24] HOMA−IR=glucosemmol/L×insulinμU/mL/22.5

[4] = tested on: NA-STZ induced type 2 diabetic (T2D) rats; test: Fasting blood glucose levels in NA-STZ T2D rats, 28-day oral treatment; type: in vivo, Sprague Dawley (SD) rats; details: for Fasting blood glucose level: 10 mg/kg/day b.w. oral
Experimental: The experimental rats were fasted overnight (16 h) and diabetes was induced by single intraperitoneal (i.p) injection of STZ (60 mg/kg b.w.) freshly prepared in 0.1 M citrate buffer (pH 4.5) 15 min after i.p injection of NA (100 mg/kg b.w.) dissolved in normal saline. Diabetes was confirmed 3 weeks after NA-STZ induction by measuring tail vein blood glucose levels using glucose meter (Accu-check Performa, Rochi diagnostic, USA). The rats having blood glucose levels higher than 11 mmol/L were considered as diabetic and selected for study.
The experimental rats were divided into 5 groups (n = 6; 3 M/3 F) as following. Group I: non-diabetic control (NDC) and Group II: diabetic control (DC) consisted of rats were allowed to free access of water; Group III and IV were treated orally with EAF (25 and 50 mg/kg/day b.w.) diluted in distilled water, Group V was treated orally with Glibenclamide (10 mg/kg/day b.w.) and served as standard drug. All groups except group 1 are diabetic. The selected doses (25 and 50 mg/kg/day b.w) were based on prior acute oral toxicity study.
as §3

[5] = tested on: NA-STZ induced type 2 diabetic (T2D) rats; test: Oral glucose tolerance test (OGTT) in T2D rats; type: in vivo, Sprague Dawley (SD) rats; details: 10 mg/kg
Experimental: On the 25th day of treatment, the OGTT was carried out according to the previously reported method. All animals were fasted overnight (16 h) before commencing the experiments. Group I (non-diabetic control) and Group II (diabetic control) weretreated with distilled water, Group III and Group IV were given EAF (25 and 50 mg/kg b.w), and Group V was given glibenclamide (10 mg/kg b.w.) using oral gavage, respectively. After 30 min, α-D-glucose (2 g/kg b.w.) was administered orally into all groups of rats. Blood samples were collected from the tail vein at 0 (immediately after glucose load), 30, 60, 90, and 120 min, and blood glucose levels were determined by glucose oxidase method using a commercial glucose meter (Roche, USA). […] AUCglucose=C1+C2/2×t2−t1
Where, C1 and C2 are concentrations of glucose at different time points; t1 and t2 are different tested time points.

[6] = tested on: NA-STZ induced type 2 diabetic (T2D) rats; test: Liver and renal function markers in T2D rats; type: in vivo, Sprague Dawley (SD) rats; details: 10 mg/kg b.w., 4 weeks, serum
Experimental: as §1, §2

[7] = tested on: NA-STZ induced type 2 diabetic (T2D) rats; test: Serum MDA and GSH levels in T2D rats; type: in vivo, Sprague Dawley (SD) rats; details: 10 mg/kg
Experimental: as §1
The malondialdehyde (MDA), a byproduct of lipid peroxidation, and glutathione (GSH), a marker of antioxidant defense, were quantified by commercial kit (Cayman chemical company, Ann Arbor, MI, USA) according to the manufacturer’s instructions.

[8] = tested on: NA-STZ induced type 2 diabetic (T2D) rats; test: Serum cytokine levels (ELISA) in T2D rats; type: in vivo, Sprague Dawley (SD) rats; details: 10 mg/kg b.w.
Experimental: as §1
The quantification of cytokine in the serum was assessed by enzyme-linked immunosorbent assay (ELISA) using commercial kits for rat TNF-α, rat IL-6, and rat IL-1β (eBioscience, San Diego, CA USA) according to the manufacturer’s instructions.

[9] = tested on: NA-STZ induced type 2 diabetic (T2D) rats; test: Liver glycogen contents in T2D rats; type: in vivo, Sprague Dawley (SD) rats; details: 10 mg/kg b.w.
Experimental: as §1
The glycogen contents in the liver were measured using a glycogen assay kit (Ann Arbor, MI, USA) according to the manufacturer’s instructions.

nondiabetic mice = details: 1 mg/kg b.w., 0-8 h screening; cited from earlier work
[10] = tested on: STZ-induced diabetic rats; details: 1 mg/kg b.w., 0-8 h screening; cited from earlier work
[11] = isolated compounds, read-out: Glycogen phosphorylase α IC50

α-glucosidase, sequence (P53341 whole entry): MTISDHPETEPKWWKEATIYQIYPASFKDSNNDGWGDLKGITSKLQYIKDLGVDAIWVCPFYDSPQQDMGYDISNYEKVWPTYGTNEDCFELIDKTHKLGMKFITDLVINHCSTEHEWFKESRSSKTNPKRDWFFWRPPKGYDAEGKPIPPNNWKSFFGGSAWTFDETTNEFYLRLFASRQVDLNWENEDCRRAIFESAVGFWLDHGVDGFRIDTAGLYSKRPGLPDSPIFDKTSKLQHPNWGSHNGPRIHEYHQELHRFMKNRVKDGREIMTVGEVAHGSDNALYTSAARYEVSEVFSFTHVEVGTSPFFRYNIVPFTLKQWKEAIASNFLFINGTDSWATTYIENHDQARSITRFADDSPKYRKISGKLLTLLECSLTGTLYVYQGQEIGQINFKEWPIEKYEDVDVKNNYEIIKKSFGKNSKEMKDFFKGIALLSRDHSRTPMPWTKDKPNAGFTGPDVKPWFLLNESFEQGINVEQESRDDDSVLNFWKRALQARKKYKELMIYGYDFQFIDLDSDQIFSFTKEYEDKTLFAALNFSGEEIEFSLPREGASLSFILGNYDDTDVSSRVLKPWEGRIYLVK

O=c1cc(-c2ccc(O)c(O)c2)oc2cc(O)cc(O)c12 [Compound 5, luteolin]
α-glucosidase inhibitory potency relative to acarbose (α-glucosidase; vs acarbose): 5.5 fold
IC50 [1, 11]: 45.08 ± 0.04 µM
GP-α inhibitory potency relative to caffeine ([1]; vs caffeine): 10 fold

O=C(O)c1ccc(O)c(O)c1 [Compound 6, protocatechuic acid]
IC50 [1, 11]: 297.37 ± 0.13 µM

COc1cc(C(=O)O)ccc1O [Compound 1, vanillic acid]
α-glucosidase inhibition (α-glucosidase): no inhibition
α-glucosidase inhibition (α-glucosidase; concentrations tested up to 6 mM): did not inhibit
GP-α inhibition [1]: no inhibition
inhibition at 12000 µM ([1]; at 12 mM): 22.9%

O=C(O)c1cc(O)c(O)c(O)c1 [Compound 7, gallic acid]
IC50 [1]: 214.38 ± 0.12 µM

COc1ccc(Cl)cc1C(=O)NCCc1ccc(S(=O)(=O)NC(=O)NC2CCCCC2)cc1 [Glibenclamide, glibenclamide]
Serum HDL [2]: 1.31 ± 0.08^a mmol/L
Serum LDL [2]: 0.59 ± 0.04^a mmol/L
Serum TC [2]: 1.12 ± 0.05^c mmol/L
Serum TG [2]: 0.52 ± 0.09^b mmol/L
Body Weight (Body weights in T2D rats; 0 Day): 211.00 ± 6.19 g
Body Weight (Body weights in T2D rats; Day 7): 203.50 ± 8.90 g
Body Weight (Body weights in T2D rats; Day 14): 205.83 ± 7.31 g
Body Weight (Body weights in T2D rats; Day 21): 206.00 ± 6.64 g
Body Weight (Body weights in T2D rats; Day 28): 209.33 ± 7.91 g
increase of serum insulin compared to diabetic control group [3]: 16.5%
reduction of FBG levels compared to initial day ([4]; 10 mg/kg b.w. once a day for 28 days): 45.44%
Fasting blood glucose level ([4]; 0 Day): 16.90 ± 1.63 mmol/L
Fasting blood glucose level ([4]; Day 7): 17.63 ± 2.13 mmol/L
Fasting blood glucose level ([4]; Day 14): 12.97 ± 0.72 mmol/L
Fasting blood glucose level ([4]; Day 21): 11.83 ± 1.27 mmol/L
Fasting blood glucose level ([4]; Day 28): 9.22 ± 0.65^a mmol/L
decrease of AUC for glucose 0 to 120 min compared to DC group [5]: 57.42%
OGTT blood glucose reduction at 120 min compared to the values at 30 min ([5]; day 25, glucose 2 g/kg): 29.97%
ALP [6]: 146.67 ± 10.50 U/L
ALT [6]: 58.17 ± 4.52 U/L
AST [6]: 138.83 ± 8.33 U/L
Creatinine [6]: 29.00 ± 0.93 µmol/L
Urea [6]: 10.37 ± 1.80 mmol/L
reduction of serum MDA level compared to DC group [7]: about 36.45%
increase of serum GSH level compared to DC group ([7]; not significant): about 18.94%
IL-1β [8]: 570.67 ± 31.71^b pg/ml
IL-6 [8]: 123.06 ± 10.18^b pg/ml
TNF-α [8]: 70.10 ± 4.00^b pg/ml
LG (liver glycogen) [9]: 11.55 ± 1.82 mg/g tissue

CC1=CC(=O)[C@@H](O)[C@]2(C)[C@H]3[C@@H](O)[C@H](O)[C@]4(C)OC[C@@]35[C@@H](C[C@@H]12)OC(=O)[C@H](O)[C@]54O [Compound 2, bruceine D]
α-glucosidase inhibition (α-glucosidase): no inhibition
inhibitory activity against α-glucosidase (α-glucosidase; at 2.5 mM): 14.74%
blood glucose effect (nondiabetic mice): blood glucose lowering effect
GP-α inhibition [1]: no inhibition
blood glucose effect [10]: blood glucose lowering effect

O=C(O)c1ccc(O)cc1 [Compound 4, Para-hydroxybenzoic acid]
IC50 [1, 11]: 357.88 ± 0.07 µM

CC1=C[C@H](O)[C@@H](O)[C@]2(C)[C@H]3[C@@H](O)[C@H](O)[C@@]4(C)OC[C@@]35[C@@H](C[C@@H]12)OC(=O)[C@H](O)[C@]54O [Compound 3, bruceine E]
α-glucosidase inhibition (α-glucosidase): no inhibition
inhibition at 2500 µM (α-glucosidase; at 2.5 mM, read-out: inhibitory activity against α-glucosidase): 16.1%
blood glucose effect (nondiabetic mice): blood glucose lowering effect
GP-α inhibition [1]: no inhibition
inhibition at 5000 µM ([1]; at 5 mM, read-out: inhibitory activity against GP-α): 32.7%
blood glucose effect [10]: blood glucose lowering effect

Source: article PMC5294771, “Antidiabetic effects of Brucea javanica seeds in type 2 diabetic rats” (BMC Complementary and Alternative Medicine, 2017)
